Measured values published in ChEMBL document CHEMBL1201862, “PubChem BioAssay data set” (2004).
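Protocol summary: plate cells (96-well), add compound at 5 concentrations, incubate 48 h, interpolate endpoints linearly. The concentration for 50% growth inhibition is given as GI50.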 The source made the active and inactive calls. Rule as the data show it: active = GI50 up to about 1.1 µM and inactive = higher.

Key:
Experiment in all cases: inhibition of tumour cell growth, NCI panel, 48 h
HCC 2998 = tested on: HCC 2998
RXF 393 = tested on: RXF 393
SK-OV-3 = tested on: SK-OV-3
OVCAR-5 = tested on: OVCAR-5
M14 = tested on: M14
ACHN = tested on: ACHN
HOP-62 = tested on: HOP-62
MDA-N = tested on: MDA-N
NCI-H23 = tested on: NCI-H23
LOX IMVI = tested on: LOX IMVI
SF-268 = tested on: SF-268
OVCAR-8 = tested on: OVCAR-8
EKVX = tested on: EKVX
OVCAR-3 = tested on: OVCAR-3
UO-31 = tested on: UO-31
TK-10 = tested on: TK-10
786-0 = tested on: 786-0
NCI-H226 = tested on: NCI-H226
K562 = tested on: K562
DU-145 = tested on: DU-145
SF-539 = tested on: SF-539
MDA-MB-231 = tested on: MDA-MB-231
SR = tested on: SR
IGROV-1 = tested on: IGROV-1
OVCAR-4 = tested on: OVCAR-4
HCT-15 = tested on: HCT-15
SF-295 = tested on: SF-295
A498 = tested on: A498
KM12 = tested on: KM12
SW-620 = tested on: SW-620
CCRF-CEM = tested on: CCRF-CEM
SK-MEL-2 = tested on: SK-MEL-2
NCI-H522 = tested on: NCI-H522
MCF7 = tested on: MCF7
T47D = tested on: T47D
RPMI-8226 = tested on: RPMI-8226
U-251 = tested on: U-251
SK-MEL-5 = tested on: SK-MEL-5
PC-3 = tested on: PC-3
SK-MEL-28 = tested on: SK-MEL-28
HOP-92 = tested on: HOP-92
NCI/ADR-RES = tested on: NCI/ADR-RES
NCI-H460 = tested on: NCI-H460
HT-29 = tested on: HT-29
CAKI-1 = tested on: CAKI-1
UACC-257 = tested on: UACC-257
HCT-116 = tested on: HCT-116
MOLT-4 = tested on: MOLT-4
HL-60 = tested on: HL-60
Hs-578T = tested on: Hs-578T
MDA-MB-435 = tested on: MDA-MB-435
SN12C = tested on: SN12C
COLO 205 = tested on: COLO 205
Malme-3M = tested on: Malme-3M
A549 = tested on: A549
SNB-19 = tested on: SNB-19
SNB-75 = tested on: SNB-75
UACC-62 = tested on: UACC-62
BT-549 = tested on: BT-549

With CCCCC1Cc2ccccc2-c2nc3ccccc3n21 (stereo not given) the GI50 (HCC 2998) was 14.2 µM (inactive), the GI50 (RXF 393) was 15.5 µM (inactive) and the GI50 (SK-OV-3) was 20.5 µM (inactive). For the same molecule, the GI50 (OVCAR-5) was 16 µM (inactive), the GI50 (M14) was 18.1 µM (inactive) and the GI50 (ACHN) was 17.1 µM (inactive). The GI50 (HOP-62) was 19.1 µM (inactive), the GI50 (MDA-N) was 15.1 µM (inactive) and the GI50 (NCI-H23) was 14.9 µM (inactive). For the same molecule, the GI50 (LOX IMVI) was 16 µM (inactive), the GI50 (SF-268) was 17.3 µM (inactive) and the GI50 (OVCAR-8) was 18 µM (inactive). For the same molecule, the GI50 (EKVX) was 21 µM (inactive), the GI50 (OVCAR-3) was 15.2 µM (inactive) and the GI50 (UO-31) was 19.1 µM (inactive). The GI50 (TK-10) was 17.4 µM (inactive), the GI50 (786-0) was 25.2 µM (inactive) and the GI50 (NCI-H226) was 19.4 µM (inactive). The GI50 (K562) was 12.6 µM (inactive), the GI50 (DU-145) was 18.4 µM (inactive) and the GI50 (SF-539) was 19.6 µM (inactive). The GI50 (MDA-MB-231) was 17.3 µM (inactive), the GI50 (SR) was 5.57 µM (inactive) and the GI50 (IGROV-1) was 15.8 µM (inactive). The GI50 (OVCAR-4) was 12.9 µM (inactive), the GI50 (HCT-15) was 12.6 µM and the GI50 (SF-295) was 15 µM (inactive). For the same molecule, the GI50 (A498) was 16.7 µM (inactive), the GI50 (KM12) was 15.4 µM (inactive) and the GI50 (SW-620) was 16.4 µM (inactive). For the same molecule, the GI50 (CCRF-CEM) was 0.0153 µM (active), the GI50 (SK-MEL-2) was 16.4 µM (inactive) and the GI50 (NCI-H522) was 13 µM (inactive). The GI50 (MCF7) was 17.3 µM (inactive), the GI50 (T47D) was 7.06 µM (inactive) and the GI50 (RPMI-8226) was 12.1 µM (inactive). For the same molecule, the GI50 (U-251) was 16.4 µM (inactive), the GI50 (SK-MEL-5) was 14.6 µM (inactive) and the GI50 (PC-3) was 10.3 µM (inactive). For the same molecule, the GI50 (SK-MEL-28) was 16.7 µM (inactive), the GI50 (HOP-92) was 16.4 µM (inactive) and the GI50 (NCI/ADR-RES) was 15.7 µM (inactive). The GI50 (NCI-H460) was 14.3 µM (inactive), the GI50 (HT-29) was 14.5 µM (inactive) and the GI50 (CAKI-1) was 15.5 µM (inactive). The GI50 (UACC-257) was 17.5 µM (inactive), the GI50 (HCT-116) was 12.6 µM (inactive) and the GI50 (MOLT-4) was 13.6 µM (inactive). The GI50 (HL-60) was < 0.01 µM (active), the GI50 (Hs-578T) was 17.1 µM (inactive) and the GI50 (MDA-MB-435) was 17.1 µM (inactive).
For O=CNNC(=O)Nc1ccc(Cl)cc1, the GI50 (HCC 2998) was > 100 µM (inactive), the GI50 (RXF 393) was > 100 µM (inactive) and the GI50 (SK-OV-3) was > 100 µM (inactive). For the same molecule, the GI50 (OVCAR-5) was > 100 µM (inactive), the GI50 (M14) was > 100 µM (inactive) and the GI50 (ACHN) was > 100 µM (inactive). For the same molecule, the GI50 (HOP-62) was > 100 µM (inactive), the GI50 (NCI-H23) was > 100 µM (inactive) and the GI50 (SF-268) was > 100 µM (inactive). The GI50 (SN12C) was > 100 µM (inactive), the GI50 (OVCAR-8) was > 100 µM (inactive) and the GI50 (EKVX) was > 100 µM (inactive). For the same molecule, the GI50 (UO-31) was 68.7 µM (inactive), the GI50 (TK-10) was > 100 µM (inactive) and the GI50 (786-0) was > 100 µM (inactive). For the same molecule, the GI50 (COLO 205) was > 100 µM (inactive), the GI50 (NCI-H226) was 31.1 µM (inactive) and the GI50 (K562) was > 100 µM (inactive). For the same molecule, the GI50 (DU-145) was > 100 µM (inactive), the GI50 (SF-539) was > 100 µM (inactive) and the GI50 (MDA-MB-231) was > 100 µM (inactive). For the same molecule, the GI50 (SR) was > 100 µM (inactive), the GI50 (IGROV-1) was > 100 µM (inactive) and the GI50 (OVCAR-4) was > 100 µM (inactive). For the same molecule, the GI50 (HCT-15) was > 100 µM, the GI50 (SF-295) was 33.7 µM (inactive) and the GI50 (A498) was 29.6 µM (inactive). The GI50 (KM12) was > 100 µM (inactive), the GI50 (SW-620) was > 100 µM (inactive) and the GI50 (CCRF-CEM) was > 100 µM (inactive). For the same molecule, the GI50 (Malme-3M) was > 100 µM (inactive), the GI50 (A549) was > 100 µM (inactive) and the GI50 (MCF7) was > 100 µM (inactive). The GI50 (T47D) was > 100 µM (inactive), the GI50 (RPMI-8226) was > 100 µM (inactive) and the GI50 (U-251) was > 100 µM (inactive). The GI50 (SK-MEL-5) was > 100 µM (inactive), the GI50 (SNB-19) was 95.7 µM (inactive) and the GI50 (SNB-75) was > 100 µM (inactive). For the same molecule, the GI50 (SK-MEL-28) was > 100 µM (inactive), the GI50 (HOP-92) was 26.9 µM (inactive) and the GI50 (NCI/ADR-RES) was > 100 µM (inactive). The GI50 (HT-29) was > 100 µM (inactive), the GI50 (UACC-62) was > 100 µM (inactive) and the GI50 (UACC-257) was > 100 µM (inactive). The GI50 (HCT-116) was > 100 µM (inactive), the GI50 (MOLT-4) was > 100 µM (inactive) and the GI50 (HL-60) was > 100 µM (inactive). The GI50 (Hs-578T) was > 100 µM (inactive) and the GI50 (MDA-MB-435) was > 100 µM (inactive).
In the case of CC(=O)n1c2ccc(Br)cc2c2nc3ccccc3nc21, the GI50 (HCC 2998) is reported as > 100 µM (inactive), the GI50 (RXF 393) is reported as > 100 µM (inactive) and the GI50 (OVCAR-5) is reported as > 100 µM (inactive). The GI50 (M14) was > 100 µM (inactive), the GI50 (ACHN) was > 100 µM (inactive) and the GI50 (HOP-62) was 95.1 µM (inactive). The GI50 (MDA-N) was > 100 µM (inactive), the GI50 (NCI-H23) was > 100 µM (inactive) and the GI50 (LOX IMVI) was > 100 µM (inactive). The GI50 (SF-268) was > 100 µM (inactive), the GI50 (SN12C) was > 100 µM (inactive) and the GI50 (OVCAR-8) was > 100 µM (inactive). For the same molecule, the GI50 (EKVX) was > 100 µM (inactive), the GI50 (OVCAR-3) was > 100 µM (inactive) and the GI50 (UO-31) was > 100 µM (inactive). For the same molecule, the GI50 (TK-10) was > 100 µM (inactive), the GI50 (786-0) was > 100 µM (inactive) and the GI50 (COLO 205) was > 100 µM (inactive). The GI50 (NCI-H226) was > 100 µM (inactive), the GI50 (K562) was > 100 µM (inactive) and the GI50 (DU-145) was > 100 µM (inactive). The GI50 (SF-539) was > 100 µM (inactive), the GI50 (MDA-MB-231) was > 100 µM (inactive) and the GI50 (SR) was > 100 µM (inactive). For the same molecule, the GI50 (IGROV-1) was > 100 µM (inactive), the GI50 (OVCAR-4) was 75.3 µM (inactive) and the GI50 (HCT-15) was > 100 µM. For the same molecule, the GI50 (SF-295) was > 100 µM (inactive), the GI50 (KM12) was > 100 µM (inactive) and the GI50 (SW-620) was > 100 µM (inactive). The GI50 (CCRF-CEM) was > 100 µM (inactive), the GI50 (Malme-3M) was > 100 µM (inactive) and the GI50 (SK-MEL-2) was > 100 µM (inactive). For the same molecule, the GI50 (NCI-H522) was > 100 µM (inactive), the GI50 (MCF7) was 56.2 µM (inactive) and the GI50 (RPMI-8226) was > 100 µM (inactive). The GI50 (U-251) was > 100 µM (inactive), the GI50 (SK-MEL-5) was > 100 µM (inactive) and the GI50 (PC-3) was > 100 µM (inactive). The GI50 (SNB-19) was > 100 µM (inactive), the GI50 (BT-549) was > 100 µM (inactive) and the GI50 (SNB-75) was > 100 µM (inactive). The GI50 (SK-MEL-28) was > 100 µM (inactive), the GI50 (HOP-92) was > 100 µM (inactive) and the GI50 (NCI/ADR-RES) was > 100 µM (inactive). The GI50 (NCI-H460) was > 100 µM (inactive), the GI50 (HT-29) was > 100 µM (inactive) and the GI50 (CAKI-1) was > 100 µM (inactive). The GI50 (UACC-62) was > 100 µM (inactive), the GI50 (UACC-257) was > 100 µM (inactive) and the GI50 (HCT-116) was > 100 µM (inactive). For the same molecule, the GI50 (MOLT-4) was > 100 µM (inactive), the GI50 (HL-60) was > 100 µM (inactive) and the GI50 (MDA-MB-435) was > 100 µM (inactive).
